We go through 14 compounds from PubChem BioAssay (NCI).

Assay in all cases: NCI tumour cell line growth inhibition, 48 h
Assay [1] has as its system RPMI-8226 leukemia.
Assay [2] deals with SW-620 colon.
For assay [3], the system named is SK-MEL-5 melanoma.
For assay [4], the system named is UACC-62 melanoma.
In assay [5] the test system is ACHN renal.
The subject of assay [6] is HT29 colon.
Assay [7] has as its system UACC-257 melanoma.
In assay [8] the test system is A498 renal.
In assay [9] the test system is OVCAR-3 ovarian.

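Growth conditions: 96-well plates. Treatment: test compound, 48 hours, 5 concentrations. Analysis: linear interpolation between bracketing concentrations; unreached endpoints set to highest concentration. At the GI50, growth is halved. TGI denotes the concentration required for complete inhibition of growth.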

Turning to `Cn1nc(-c2ccccc2)c2c(/C=C/c3ccc(Cl)cc3)onc2c1=O`, the TGI in [1], in assay [2], in assay [3], in assay [4], in assay [5] and in assay [6] was greater than 100 µM throughout.
On to `COC(=O)C(=NNc1ccccc1[N+](=O)[O-])C(=O)OC`, for which the TGI in assay [2], in assay [5], in assay [7], in [8] and in [6] was greater than 100 µM throughout.
Consider `CC12CCCC(C#N)(C1)OC2=O` (stereo not given), for which the TGI in assay [2], in assay [3], in assay [4], in [5], in assay [7] and in assay [8] was greater than 100 µM each time. Moreover, the TGI in [6] and in assay [9] was greater than 100 µM each time.
As to `CCc1cccc(C)c1N1C(=O)C(=O)C(c2nc3ccccc3o2)/C(=N/NC(=S)NN)C1=O` (stereo not given), the TGI in assay [1], in [2], in assay [3], in assay [4], in [5] and in assay [7] was greater than 100 µM throughout. Moreover, the TGI in assay [8], in assay [6] and in assay [9] was greater than 100 µM in each case.
Turning to `O=C(CN(Cc1ccccc1)Cc1ccccc1)N1CCc2c([nH]c3ccccc23)C1c1cccnc1` (stereo not given), the TGI in assay [1] is 4.53 µM; in assay [2] it was greater than 100 µM; in assay [3], 20.1 µM; in assay [4], 30.7 µM; in [5] it was greater than 100 µM; in assay [7], greater than 100 µM. Besides, the results for the TGI in assay [8], in assay [6] and in [9] were 61.5 µM, 19.7 µM and 34 µM, respectively.
In the case of `O=C[C@]12CC=C3OC4OC5(CCCCC5)OC4[C@H]3[C@H]1C(=O)C=CC2=O` (stereo not given in full), the TGI in assay [2] is 38.9 µM; in assay [3], 35.5 µM; in assay [4], 52.6 µM; in assay [5], 58.5 µM; in assay [7], 45.3 µM; in assay [8], greater than 100 µM. This compound registered a TGI in assay [6] greater than 100 µM.
In the case of `N.N.N.N.N.N#Cc1nn[n-]n1.[Cl-].[Co+3]`, the GI50 in assay [1], in assay [2], in assay [3], in assay [4], in assay [5] and in assay [7] was greater than 100 µM each time. Moreover, the GI50 in [6] and in [9] was greater than 100 µM throughout. The TGI in assay [1], in assay [2], in assay [3], in [4], in assay [5] and in assay [7] was greater than 100 µM in each case. Also, the TGI in assay [6] and in [9] was greater than 100 µM in each case.
With `CC[O-].CC[O-].COc1ccc(C(=O)[CH-]C(C)=O)cc1OC.COc1ccc(C(=O)[CH-]C(C)=O)cc1OC.[Ti+4]`, the GI50 in assay [1] was 44.6 µM; in [2], greater than 100 µM; in [3] it was greater than 100 µM; in assay [4], 56.5 µM; in assay [5], 35.9 µM; in assay [7], greater than 100 µM. The values for the GI50 in [8], in [6] and in assay [9] were 29.6 µM, 47.8 µM and 46.4 µM, respectively. The TGI in [1], in assay [2], in [3], in assay [4], in assay [5] and in [7] was greater than 100 µM each time. Moreover, the TGI is 75.2 µM in assay [8], greater than 100 µM in [6] and greater than 100 µM in assay [9].
`O=CC1CCC=CC1NC(=O)OCc1ccccc1` (stereo not given): the TGI in assay [1], in assay [2], in assay [3], in assay [4], in assay [5] and in assay [7] was greater than 100 µM each time. Further, the TGI in [6] is greater than 100 µM.
For `Cc1ccc2nc(Sc3c([N+](=O)[O-])ncn3C)[nH]c2c1`, the TGI in assay [1] is 78.7 µM; in [2], greater than 100 µM; in [3], 33.1 µM; in assay [4], 35.7 µM; in [5], greater than 100 µM; in assay [7] it was 38.5 µM. Further, the TGI was 83.2 µM in assay [8], greater than 100 µM in assay [6] and 56.7 µM in assay [9].
With `N#CC(C#N)=Cc1ccc(C(O)P(=O)(O)O)cc1` (stereo not given), the TGI in assay [1], in [2], in assay [3], in assay [4], in assay [5] and in assay [7] was greater than 100 µM in each case. The TGI in assay [8], in assay [6] and in [9] was greater than 100 µM throughout.
With `O=C1c2cccc([N+](=O)[O-])c2C(=O)c2nccnc21`, the TGI in [1] amounted to 7.92 µM; in assay [2] it was 3.92 µM; in assay [3], 1.13 µM; in [4], 2.62 µM; in assay [5], 15.1 µM; in assay [7], 1.66 µM. The TGI in [8] came to 17.3 µM; in assay [6], 4.3 µM; in [9], 3.88 µM.
As for `COC(=O)C(=O)C(C#N)c1cccc(Cl)c1` (stereo not given), the TGI in assay [1], in assay [2], in [3], in assay [4], in assay [5] and in assay [7] was greater than 100 µM in each case. Further, the TGI in [8], in assay [6] and in assay [9] was greater than 100 µM each time.
On to `CC12CC/C(=N/NC(N)=O)C3C1CCCC32`, for which the TGI in assay [1], in assay [2], in assay [3], in [4], in [5] and in [7] was greater than 100 µM each time. Moreover, the TGI in [8], in [6] and in assay [9] was greater than 100 µM throughout.
